Data reported in ChEMBL document CHEMBL4602684, “Siderophores from the Entomopathogenic Fungus Beauveria bassiana” (J Nat Prod, 2020).
Counter-ions that a name gives are not always drawn. The source made the active and inactive calls. The rule behind the calls is not given here.

Assays:
[1] = Binding affinity to Fe3+ assessed as formation of Fe3+-compound complex in presence of FeCl3 by HRESIMS method
[2] = Binding affinity to Fe3+ assessed as formation of Fe3+-compound complex at 100 ug/disk by CAS agar disk diffusion method
[3] = Binding affinity to Fe3+ assessed as formation of Fe3+-compound complex incubated for 22 hrs by liquid CAS assay
[4] = Binding affinity to Fe3+ assessed as formation of Fe3+-compound complex stoichiometry ratio of 1:1 by HRESIMS method
[5] = Binding affinity to Fe3+ assessed as formation of Fe3+-compound complex stoichiometry ratio of 2:1 by HRESIMS method
[6] = Binding affinity to Fe3+ assessed as formation of Fe3+-compound complex stoichiometry ratio of 3:1 by HRESIMS method

| SMILES | Activity [1] | Activity [2] | EC50 [3] [µM] | Activity [4] | Activity [5] | Activity [6] |
| --- | --- | --- | --- | --- | --- | --- |
| CC(=O)N(O)CCCCCNC(=O)CCC(=O)N(O)CCCCCNC(=O)CCC(=O)N(O)CCCCCN [DEFEROXAMINE MESYLATE] |  |  | 20 |  |  |  |
| C/C(=C\C(=O)N(O)CCC[C@@H]1NC(=O)[C@H](CCC[N+](=O)[O-])NC1=O)CCO |  | inactive |  | Active | Active | inactive |
| C/C(=C\C(=O)NCCC[C@@H]1NC(=O)[C@H](CCCNC(=O)/C=C(\C)CCO)NC1=O)CCO | inactive | inactive |  |  |  |  |
| C/C(=C\C(=O)N(O)CCC[C@@H]1NC(=O)[C@H](CCCN(O)C(=O)/C=C(\C)CCO[C@@H]2O[C@H](CO)[C@@H](O)[C@H](O)[C@@H]2O)NC1=O)CCOC(=O)[C@H](CCCN(O)C(=O)/C=C(\C)CCO[C@@H]1O[C@H](CO)[C@@H](O)[C@H](O)[C@@H]1O)[N+](C)(C)[O-] | Active | Active | 15.7 |  |  |  |
| CO[C@H]1[C@H](O)[C@H](O)[C@H](OCC/C(C)=C/C(=O)N(O)CCC[C@@H](C(=O)O)[N+](C)(C)[O-])O[C@@H]1CO |  | inactive |  | Active | Active | inactive |
| C/C(=C\C(=O)N(O)CCC[C@@H](N)C(=O)O)CCO |  | inactive |  |  |  |  |

Continued, values first:

| Activity [1] | Activity [2] | EC50 [3] [µM] | Activity [4] | Activity [5] | Activity [6] | SMILES |
| --- | --- | --- | --- | --- | --- | --- |
| Active | Active |  |  |  |  | C/C(=C\C(=O)N(O)CCC[C@@H]1NC(=O)[C@H](CCCN(O)C(=O)C[C@](C)(O)CCO)NC1=O)CCO |
| Active | Active |  |  |  |  | C/C(=C\C(=O)N(O)CCC[C@@H]1NC(=O)[C@H](CCCN(O)C(=O)/C=C(\C)CCO[C@@H]2O[C@H](CO)[C@@H](O)[C@H](O)[C@@H]2O)NC1=O)CCO |
| Active | Active |  |  |  |  | CO[C@H]1[C@H](O)[C@H](O)[C@H](OCC/C(C)=C/C(=O)N(O)CCC[C@@H]2NC(=O)[C@H](CCCN(O)C(=O)/C=C(\C)CCO)NC2=O)O[C@@H]1CO |
| Active | Active |  |  |  |  | C/C(=C\C(=O)N(O)CCC[C@@H]1NC(=O)[C@H](CCCN(O)C(=O)C[C@](C)(O)CCO[C@@H]2O[C@H](CO)[C@@H](O)[C@H](O)[C@@H]2O)NC1=O)CCO |
| Active | Active |  |  |  |  | C[C@@](O)(CCO)CC(=O)N(O)CCC[C@@H]1NC(=O)[C@H](CCCN(O)C(=O)C[C@](C)(O)CCO)NC1=O |
| Active | Active |  |  |  |  | CO[C@H]1[C@H](O)[C@H](O)[C@H](OCC[C@@](C)(O)CC(=O)N(O)CCC[C@@H]2NC(=O)[C@H](CCCN(O)C(=O)/C=C(\C)CCO)NC2=O)O[C@@H]1CO |
| Active | Active | 13 |  |  |  | C/C(=C\C(=O)N(O)CCC[C@@H]1NC(=O)[C@H](CCCN(O)C(=O)/C=C(\C)CCO)NC1=O)CCO |
|  | inactive |  | Active | Active | inactive | CO[C@H]1[C@H](O)[C@H](O)[C@H](OCC/C(C)=C/C(=O)N(O)CCC[C@@H](C(=O)O)N(C)C)O[C@@H]1CO |
